Laboratory results published in PubChem BioAssay AID1963985 (Molecular Pharmacology Branch, DTP, NCI, 2024).
pIC50: −log10 of the molar value. “And” between values parts separate entries of the source, which are not always exact repeats. Identical values can stand only once.

Test system: 252836-082-R-J2-PDC tumor spheroids, viability
Assay: Anticancer human tumor 252836-082-R-J2-PDC patient-derived head and neck squamous cell carcinoma cell line growth inhibition [PI3K]
Conditions: spheroids with HUVEC and MSC; for viability, T/C: stronger effect = lower value
In short: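 Tumor cells were combined with HUVEC and MSCs into spheroids, then dosed with PI3K-inhibitor combinations over half-log ranges capped near clinical Cmax or 10 microM.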

[1] = curve of first compound, second compound 0.0316 µM
[2] = curve of first compound, second compound 0.1 µM
[3] = curve of first compound, second compound 0.316 µM
[4] = curve of first compound, second compound 1 µM
[5] = curve of first compound, second compound 3.16 µM
[6] = curve of first compound, second compound 10 µM
[7] = second compound 0.0316 µM, first compound 0.0316 µM
[8] = second compound 0.0316 µM, first compound 0.1 µM
[9] = second compound 0.0316 µM, first compound 0.316 µM
[10] = second compound 0.0316 µM, first compound 1 µM
[11] = second compound 0.0316 µM, first compound 3.16 µM
[12] = second compound 0.0316 µM, first compound 10 µM
[13] = second compound 0.1 µM, first compound 0.0316 µM
[14] = second compound 0.1 µM, first compound 0.1 µM
[15] = second compound 0.1 µM, first compound 0.316 µM
[16] = second compound 0.1 µM, first compound 1 µM
[17] = second compound 0.1 µM, first compound 3.16 µM
[18] = second compound 0.1 µM, first compound 10 µM
[19] = second compound 0.316 µM, first compound 0.0316 µM
[20] = second compound 0.316 µM, first compound 0.1 µM
[21] = second compound 0.316 µM, first compound 0.316 µM
[22] = second compound 0.316 µM, first compound 1 µM
[23] = second compound 0.316 µM, first compound 3.16 µM
[24] = second compound 0.316 µM, first compound 10 µM
[25] = second compound 1 µM, first compound 0.0316 µM
[26] = second compound 1 µM, first compound 0.1 µM
[27] = second compound 1 µM, first compound 0.316 µM
[28] = second compound 1 µM, first compound 1 µM
[29] = second compound 1 µM, first compound 3.16 µM
[30] = second compound 1 µM, first compound 10 µM
[31] = second compound 3.16 µM, first compound 0.0316 µM
[32] = second compound 3.16 µM, first compound 0.1 µM
[33] = second compound 3.16 µM, first compound 0.316 µM
[34] = second compound 3.16 µM, first compound 1 µM
[35] = second compound 3.16 µM, first compound 3.16 µM
[36] = second compound 3.16 µM, first compound 10 µM
[37] = second compound 10 µM, first compound 0.0316 µM
[38] = second compound 10 µM, first compound 0.1 µM
[39] = second compound 10 µM, first compound 0.316 µM
[40] = second compound 10 µM, first compound 1 µM
[41] = second compound 10 µM, first compound 3.16 µM
[42] = second compound 10 µM, first compound 10 µM
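Also: spheroids exposed to agents for seven days before readout.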
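For viability, T/C in this document: percent of vehicle DMSO control viability so 100% = untreated growth.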

CNC(=O)c1ccc(N2C(=S)N(c3ccc(C#N)c(C(F)(F)F)c3)C(=O)C2(C)C)cc1F + CC(Nc1ncnc2nc[nH]c12)c1cc2cccc(Cl)c2c(=O)n1-c1ccccc1
pIC50 [1]: < 5.00 | pIC50 [2]: < 5.00 | pIC50 [3]: < 5.00 | pIC50 [4]: < 5.00 | pIC50 [5]: < 5.00 | pIC50 [6]: < 5.00 | viability, T/C [7]: 103% | viability, T/C [8]: 83.9% | viability, T/C [9]: 91.7% | viability, T/C [10]: 85.1% | viability, T/C [11]: 98.2% | viability, T/C [12]: 93.4% | viability, T/C [13]: 86.4% | viability, T/C [14]: 83.5% | viability, T/C [15]: 113% | viability, T/C [16]: 91.2% | viability, T/C [17]: 86.2% | viability, T/C [18]: 78.6% | viability, T/C [19]: 102% | viability, T/C [20]: 79.5% | viability, T/C [21]: 90.5% | viability, T/C [22]: 90.2% | viability, T/C [23]: 88.7% | viability, T/C [24]: 78% | viability, T/C [25]: 80.9% | viability, T/C [26]: 94.9% | viability, T/C [27]: 90.9% | viability, T/C [28]: 89.6% | viability, T/C [29]: 94% | viability, T/C [30]: 80.6% | viability, T/C [31]: 85.7% | viability, T/C [32]: 73.2% | viability, T/C [33]: 75.7% | viability, T/C [34]: 74.3% | viability, T/C [35]: 86.4% | viability, T/C [36]: 62.2% | viability, T/C [37]: 63% | viability, T/C [38]: 71.8% | viability, T/C [39]: 70.9% | viability, T/C [40]: 70.5% | viability, T/C [41]: 69.8% | viability, T/C [42]: 59.3%

CC(=O)c1c(C)c2cnc(Nc3ccc(N4CCNCC4)cn3)nc2n(C2CCCC2)c1=O
viability, T/C (compound 0.000316 µM): 95.4% [middle of 4 runs] | viability, T/C (compound 0.001 µM): 95.7% [middle of 4 runs] | viability, T/C (compound 0.00316 µM): 93.9% and 100% (2×) and 83.1% | viability, T/C (compound 0.01 µM): 97.5% [middle of 4 runs] | viability, T/C (compound 0.0316 µM): 87.3% [middle of 4 runs] | viability, T/C (compound 0.1 µM): 95.2% [middle of 4 runs] | pIC50 (curve of compound): < 7.00

C#Cc1c(F)ccc2cc(O)cc(-c3ncc4c(N5CC6CCC(C5)N6)nc(OCC56CCCN5CC(F)C6)nc4c3F)c12 (stereo unspecified) + Cc1nc(NC(=O)N2CCCC2C(N)=O)sc1-c1ccnc(C(C)(C)C(F)(F)F)c1
pIC50 [1]: < 5.00 | pIC50 [2]: < 5.00 | pIC50 [3]: < 5.00 | pIC50 [4]: 5.35 | pIC50 [5]: > 7.50 | pIC50 [6]: > 7.50 | viability, T/C [7]: 96.4% | viability, T/C [8]: 82.3% | viability, T/C [9]: 98.8% | viability, T/C [10]: 76.5% | viability, T/C [11]: 72.2% | viability, T/C [12]: 69.2% | viability, T/C [13]: 92.4% | viability, T/C [14]: 78.4% | viability, T/C [15]: 76.9% | viability, T/C [16]: 78% | viability, T/C [17]: 63.6% | viability, T/C [18]: 67.4% | viability, T/C [19]: 70.2% | viability, T/C [20]: 64.7% | viability, T/C [21]: 71.1% | viability, T/C [22]: 58.4% | viability, T/C [23]: 60.8% | viability, T/C [24]: 53.5% | viability, T/C [25]: 54.4% | viability, T/C [26]: 54.9% | viability, T/C [27]: 53.9% | viability, T/C [28]: 60.4% | viability, T/C [29]: 54.9% | viability, T/C [30]: 37.7% | viability, T/C [31]: 41.9% | viability, T/C [32]: 40.6% | viability, T/C [33]: 44.5% | viability, T/C [34]: 40.9% | viability, T/C [35]: 39.7% | viability, T/C [36]: 22% | viability, T/C [37]: 36.3% | viability, T/C [38]: 35.2% | viability, T/C [39]: 31.5% | viability, T/C [40]: 25% | viability, T/C [41]: 25.7% | viability, T/C [42]: 9.29%
